Tests used:
CT26 cells = test: Anti-tumor vaccination assay, CT26 cells in BALB/c mice; assay type: in vivo, mouse; conditions: 8 Gy + 10 μM compound 24 h
Procedure: (§1) FIG. 5. Identification of cannibalism modulators as immunogenic cell death inducers. MCA205 (A) or CT26 (E, I, M, Q) cells were treated with the indicated drugs. After 24 h of coculture with the indicated treatment, cell death was monitored by staining DiOC6(3) and PI, and the percentage of dying (DiOC6(3)^low PI^−, open bars) and dead (DiOC6(3)^low PI^+, closed bars) cells was determined by cytofluorometry. (B-D) MCA205 cells or (F-H, J-L, N-P, R-T) CT26 cells cocultured after x irradiation with the indicated compounds were inoculated subcutaneously into the right flank of […] or BALB/c mice, respectively. Seven days later, the mice were rechallenged with live cells injected into the opposite flank, and tumor growth was monitored (five mice per group).
FIG. 6. Tumor vaccination experiments. CT26 cells were treated for 24 hours with 10 μM VP331 (A, F, K), 10 μM Minaprine (B, G, L), 10 μM Lopa87 (C, H, M), 10 μM SG6163F (D, I, N), 10 μM Azaguanine-8 (8-aza) (E, J, O) alone or combined with 8 Gy ionizing radiation and inoculated (s.c.) into immunocompetent BALB/c mice, which were rechallenged at the opposite flank 7 days later with the same cancer cells. The percentage of tumor-free mice was evaluated three times a week for the following 38 days. Percentage of total tumor free mice (A-E), tumor free-mice at the first injection site (F to J, P) or at the second injection site (K to O, Q) are shown. (*P<0.05, **P<0.01, ***P<0.001, two-way ANOVA).
The combination of IRCCE with IR induces efficient antitumor immunity. Considering that immunogenic cell death (ICD) inducers were identified (such as Digoxin, Digitoxin, Lanatoside C or Doxorubicin hydrochloride)^3, 4, 48-51) as IRCCE, the ability of these compounds to induce an antitumor immunity after radiotherapy was evaluated. First, a preclinical approaches was developed to study the immunological effects of IRCCE on two mouse models of carcinoma (colon CT26 carcinoma and fibrosarcoma MCA205). Initially, the ability of the combination of IRCCE+IR to trigger a specific anti-tumor immune response was appreciated using immunocompetent mice through anti-tumor vaccination assays. According to previously published studies^52, the injection of cancer cells succumbing to an immunogenic cell death (ICD) into immunocompetent mice must elicit a protective immune response that is specific for tumor antigens. Thus, 3×10^5 MCA205 cells were first treated with 10 μM of SG6163F for 24 hours. Then, treated cells were inoculated subcutaneously in 200 μl PBS into the lower flank of 8-week-old female C57BL/6 mice. One week later, 3×10^4 untreated control cells were inoculated into the contralateral flank of mice. Tumors were evaluated weekly using a common caliper. Animals bearing tumors that exceeded 20-25% body mass were euthanatized. […] Then, 3×10^6 CT26 cells were irradiated with 8 Gy in presence of 10 μM of SG6163F (FIGS. 5E and 5F), VP331 (FIGS. 5I and 5J), Minaprine dihydrochloride (FIGS. 5M and 5N) or LOPA87 (FIGS. 5Q and 5R) for 24 hours. Then, cells were inoculated as previously described subcutaneously in […] into the lower flank of 8-week-old female BALB/c mice. One week later, 5×10^5 untreated control cells were inoculated into the contralateral flank of mice and tumors were evaluated weekly using a common caliper. As previously mentioned, animals bearing tumors that exceeded 20-25% body mass were euthanatized. The percentage of dying cells in each condition was evaluated by determining with DiOC(6)3/IP staining (FIGS. 5E, 5I, 5M and 5Q). Finally, the ability of these compounds to repress the growth of cancer cells that have been injected 7 days after injection of irradiated and treated cancer cells was appreciated.
A second anti-tumor vaccination assay was done on CT26 mouse models of carcinoma as previously described. […]

MCA205 cells [1] = test: Cell death of treated MCA205 cells (DiOC6(3)/PI cytofluorometry); assay type: cell-based, mouse; conditions: 10 μM compound alone, 24 h
Procedure: as §1
(§2) The combination of IRCCE with IR induces efficient antitumor immunity. Considering that immunogenic cell death (ICD) inducers were identified (such as Digoxin, Digitoxin, Lanatoside C or Doxorubicin hydrochloride)^3, 4, 48-51) as IRCCE, the ability of these compounds to induce an antitumor immunity after radiotherapy was evaluated. […] Tumors were evaluated weekly using a common caliper. […] One week later, 5×10^5 untreated control cells were inoculated into the contralateral flank of mice and tumors were evaluated weekly using a common caliper. […]

MCA205 cells [2] = test: Anti-tumor vaccination assay, MCA205 cells in C57BL/6 mice; assay type: in vivo, mouse; conditions: rechallenge one week later
Procedure: as §1, §2

HCT116 cells = test: Screening of chemical libraries for IR-mediated cellular cannibalism (imaging flow cytometry, confocal validation); assay type: cell-based, human; conditions: 8 Gy irradiated HCT116 cells, 10 μM compound, 24 h culture
Procedure: FIG. 4 Identification of cannibalism modulators triggered by ionizing radiation. Compounds from the Prestwick (A) and CEA (F) libraries were tested for their capacities to induce cellular cannibalism after ionizing radiation. Cannibal cells were detected after homotypic cultures of 8 gray γ-irradiation HCT116 cells in the presence or absence of 10 μM of the Prestwick (A) and CEA […] library compounds. Each dot represents one compound. Representative images are shown in (B, G). (C, H) HCT116 cells were treated with the indicated drugs. After 24 h of treatment, cell death was monitored by staining with 3,3 dihexyloxacarbocyanine iodide (DiOC6(3)) and PI^+, and the percentage of dying (DiOC6(3)^low PI^−, open bars) and dead (DiOC6(3)^low PI^+, closed bars) cells was determined by cytofluorometry. Validation of the cannibalism inducers by fluorescent microscopy. Representative images (D, I) and quantification (E, J) are shown. Results are means s.e.m. of triplicate determinations.
Untreated HCT116 cells were labeled with CMFDA (green fluorescence, CMFDA^+) or CMTMR, (red fluorescence, CMTMR) and treated HCT116 cells with CMFDA (green fluorescence, CMFDA^+). The following cell mixtures were performed: untreated CMTMR^+ HCT116 cells were mixed with untreated CMFDA^+ HCT116 cells, or untreated CMTMR^+ HCT116 cells were mixed with treated CMFDA^+ HCT116 cells. Then, cells were co-cultured during 24 hours in the presence or absence of the pharmacological inhibitor of ROCK, Y27632 (30 μM), the pan-caspase inhibitor, Z-VAD-fmk (ZVAD, 100 μM), the inhibitor of caspase-1, Ac-YVAD-cmk (YVAD, 100 μM), the necroptosis inhibitor, Necrostatin-1 (NEC1, 30 μM), the inhibitor of the vacuolar type H(+)-ATPase (V-ATPase) inhibiting autophagy, Bafilomycin A1 (BafA1, 50 nM), the inhibitor of Cdks with an anti-mitotic activity, Roscovitine (Rosco, 10 μM). After 24 hours of co-culture, both detached and adherent cells were collected and stained with Hoechst […] (10 μg/mL) during 1 hour at 37° C. in warmed complete medium. To detect phosphatidylserine (PS) exposure and plasma membrane permeability, labeled HCT116 cells were successively incubated with Biotin-AnnexinV (BD Pharmingen) as recommended by manufacturer, […] BV786-Streptavidin (BD Biosciences) and 3 μM DRAQ7 (BioStatus) during 15 minutes at 25° C. After washing with PBS solution, samples were immediately analyzed using an imaging flow cytometer FlowSight® (Amnis®, part of EMD Millipore). Data were acquired at a 20× magnification, using INSPIRE software. The 405 nm, 488 nm, and 561 nm lasers were used for excitation. Brightfield, Annexin V-BV786, DRAQ7, CMFDA, CMTMR and Hoechst […] stainings were detected using respectively channels for 420-480 nm, 745-800 nm, 642-745 nm, 480-560 nm, 595-642 nm and 430-505 nm. At least 1000 events of cells per sample were analyzed. Additional single-labeled controls were prepared to normalize fluorescent signal across different channels. Acquired data were analyzed using the IDEAS analysis software (v6.1; Merck-Millipore). Gating strategy was the following. Cells were gated for focused cells using the Gradient RMS feature. Cells were gated for single cells using the aspect ratio and area features. For the cannibalism detection, cells were gated in the double positive CMFDA^+ and CMTMR^+ staining.
To detect PS exposure, plasma membrane permeability and cell cycle progression, cells were after co-culture sequentially labeled with specific fluorescent probes (such as FITC-conjugated AnnexinV, propidium iodide, and Hoechst 33342) and analyzed by flow cytometry. Both detached and adherent cells were collected and stained with Hoechst […] (10 μg/ml) during 1 hour at 37° C. in warmed complete medium. After washing with PBS, HCT116 cells were suspended in 1× binding buffer supplemented with fluorescein isothiocyanate (FITC)-conjugated Annexin V (BD Biosciences) and propidium iodide (PI, 1 μg/mL) (Sigma), as per manufacturer's instructions. […]

## O=C1NC(c2ccccc2)=N/C1=C\c1cc2ccccc2c2ccccc12 [SG6163F]
CT26 cells; first assay: CT26 cells, rechallenge one week later
  frequency of mice showing a protective response: significant increase in the frequency of mice showing a protective response
CT26 cells; second assay: CT26 cells, rechallenge 7 days later
  frequency of mice showing a protective response: Significant increases in the frequency of mice showing a protective response
MCA205 cells [1]
  increase of cell death in vitro: not able to induce a significant increase of cell death
MCA205 cells [2]; MCA205 cells treated with 10 μM compound alone, s.c. in C57BL/6 mice
  protective response after inoculation of untreated cells: did not exhibit a protective response
MCA205 cells [2]; MCA205 cells treated with 8 Gy of IR and 10 μM compound, C57BL/6 mice
  mice with protective response: 3 of 5
HCT116 cells
  enhancement of IR-mediated cellular cannibalism: efficient cellular cannibalism enhancer

Source: patent publication US11517575B2, “Use of minaprine to reduce tumor growth” (Institut Gustave-Roussy, priority 2019, dated 2022)
